# Experimental data reported in US6521283B1, “Non-thrombogenic surfaces” (Biocompatibles Limited, priority 1990, dated 2003).
# “And” between values parts separate entries of the source, which are not always exact repeats. Identical values can stand only once. Marks after values point to notes of the source that are not given here.
# What was measured:
# platelets = assay: quantitative platelet adhesion test (ATP luminometry) in fresh citrated whole human blood; assay type: cell-based
# Description: A quantitative platelet adhesion test was carried out by immersing samples in fresh citrated whole human blood at room temperature for 30 minutes. Tubing samples were prepared in 3 cm lengths sealed at both ends (the blood being introduced into the sample by hypodermic needle), and constantly mixed using a spiral mixer (tests were carried out in triplicate). Blood used in this assay was obtained using the double syringe method.
# After incubation the samples were washed in isotonic phosphate buffered saline (PBS) and extracted into 1% trichloro acetate (TCA) (w/v) in 2 mM ethylene diamine tetraacetic acid (EDTA) to liberate ATP from any platelets adhering to the walls of the tubing.
# The amount of ATP present in the extractant was estimated using the LKB Pharmacia ATP assay kit and a luminometer.
# The number of platelets adhering to the samples was estimated from a standard curve using ATP levels associated with a known number of platelets.
# recalcified blood = assay: in-use simulation: recalcified blood incubated in catheter segments, clot formation; parameters: species or system human; conditions: 15 cm catheter segment, frosted region, coated according to Example 2, 37° C., 150 minutes
# Description: Three 15 cm segments of catheter (frosted region) coated according to Example 2 were prepared with the ends sealed using Eppendorf tubes. 40 ml of blood was collected from an adult volunteer into tri-sodium citrate (32 g/l) using the double syringe technique (the first 5 ml were discarded). 2 ml of 0.025 M calcium chloride in 0.15 M sodium chloride was added to 10 ml of citrated blood. 4 ml of recalcified blood was then added to each of the three catheter segments. The tubes were placed in a 37° C. incubator for 150 minutes. The samples were turned every 30 minutes. After this incubation the blood was drained from each of the catheters. They were then rinsed using PBS to remove any loosely bound material.
# [1] = wettability: static contact angles with distilled water drops; assay type: physicochemical; conditions: for Contact angles (°) (average) / Contact angles (°), single readings: distilled water drops after 5 minutes
# Description: The wettability of materials coated with DPPC according to the preceding examples was assessed by measurement of static contact angles using distilled water drops after 5 minutes in contact with the surface.
# [2] = tested on: blood cells / platelet cells; assay: haemocompatibility of suture materials by scanning electron microscopy after incubation in whole blood; assay type: cell-based, human; conditions: braided polyester yarn suture material coated at 10 mg/ml (Example 3)
# Description: Samples of the braided material treated according to Example 3 were incubated in fresh, citrated whole blood as described in Example 10 above. After removal from the blood these materials were washed using PBS and prepared for scanning electron microscopy by fixing in an aliquot of the following solution:
# 83 ml 0.15 M PBS (pH 7.4) 15 ml saturated picric acid
# The samples were washed in PBS and dehydrated using 70% ethanol, followed by absolute ethanol. Finally samples were sputter coated with gold (at 30 mA for 3 minutes) and observed under the electron microscope.
# [3] = PE (polyethylene) treated at 10 mg/ml
# [4] = PVC thoracic drain catheter, clear region, coated at 10 mg/ml (Example 2)
# [5] = PVC thoracic drain catheter, frosted region, coated at 10 mg/ml (Example 2)
# [6] = polystyrene petri dish spin-coated at 10 mg/ml (Example 4)
# [7] = PVC thoracic drain catheter coated as Ex. 2 at 10 mg/ml
# [8] = polyethylene coated as Ex. 5 at 10 mg/ml
# [9] = soft PVC tubing coated as Ex. 1
# [10] = FEP IV catheters treated at 10 mg/ml in ethanol (Example 8)
# [11] = hard PVC tubing coated with 5 mg/ml solution (Example 1)
# [12] = hard PVC tubing coated with 10 mg/ml solution (Example 1)
# [13] = polypropylene hollow fibre membrane treated at 2 mg/ml (Example 7)
# [14] = polypropylene hollow fibre membrane treated at 10 mg/ml (Example 7)
# [15] = polypropylene hollow fibre membrane treated at 10 mg/ml (Example 7), includes outlier
# [16] = soft PVC tubing coated with 5 mg/ml solution (Example 1)
# [17] = soft PVC tubing coated with 10 mg/ml solution (Example 1)
smiles,measurement,setting,value
"CCCCCCCCCCCCCC(=O)OC[C@H](COP(=O)([O-])OCC[N+](C)(C)C)OC(=O)CCCCCCCCCCCCC [DMPC, dimyristoyl phosphatidyl choline]",% Reduction (platelet adhesion vs uncoated PE),platelets; [3],94%
same,"platelets adhered, DONOR 1",platelets; [3],0.91 no. of platelets ×10^6 per 22 mm^2 area of material
same,"platelets adhered, DONOR 2",platelets; [3],1.38 no. of platelets ×10^6 per 22 mm^2 area of material
same,"platelets adhered, DONOR 3",platelets; [3],3.99 no. of platelets ×10^6 per 22 mm^2 area of material
same,"platelets adhered, X̄ (mean of donors)",platelets; [3],2.09 no. of platelets ×10^6 per 22 mm^2 area of material
same,% Reduction (platelet adhesion vs uncoated),platelets; [4],56.1%
same,"platelets adhered, DONOR 1",platelets; [4],15.26 platelets adhered ×10^6 per 3 cm lengths of catheters
same,"platelets adhered, DONOR 2",platelets; [4],8.09 platelets adhered ×10^6 per 3 cm lengths of catheters
same,"platelets adhered, DONOR 3",platelets; [4],16.78 platelets adhered ×10^6 per 3 cm lengths of catheters
same,"platelets adhered, X̄ (mean of donors)",platelets; [4],13.38 platelets adhered ×10^6 per 3 cm lengths of catheters
same,% Reduction (platelet adhesion vs uncoated),platelets; [5],95%
same,"platelets adhered, DONOR 1",platelets; [5],0.31 platelets adhered ×10^6 per 3 cm lengths of catheters
same,"platelets adhered, DONOR 2",platelets; [5],0.11 platelets adhered ×10^6 per 3 cm lengths of catheters
same,"platelets adhered, DONOR 3",platelets; [5],0.56 platelets adhered ×10^6 per 3 cm lengths of catheters
same,"platelets adhered, X̄ (mean of donors)",platelets; [5],0.33 platelets adhered ×10^6 per 3 cm lengths of catheters
same,% Reduction (platelet adhesion vs uncoated),platelets; [6],97%
same,"platelets adhered, DONOR 1",platelets; [6],1.20 no. of platelets ×10^6 adhered per petri dish (50 mm diameter)
same,"platelets adhered, DONOR 2",platelets; [6],0.26 no. of platelets ×10^6 adhered per petri dish (50 mm diameter)
same,"platelets adhered, DONOR 3",platelets; [6],3.78 no. of platelets ×10^6 adhered per petri dish (50 mm diameter)
same,"platelets adhered, X̄ (mean of donors)",platelets; [6],1.75 no. of platelets ×10^6 adhered per petri dish (50 mm diameter)
same,drainage of blood and clot remaining in catheter,recalcified blood,Whole blood drained easily. One small clot remained attached to the surface
"CCCCCCCCCCCCCCCC(=O)OC[C@H](COP(=O)([O-])OCC[N+](C)(C)C)OC(=O)CCCCCCCCCCCCCCC [DPPC, dipalmitoyl phosphatidyl choline]",Contact angles (°) (average),[1]; [7],24 °
same,"Contact angles (°), single readings",[1]; [7],26 ° and 19 °
same,Conclusion (wettability),[1]; [8],Wettable surface
same,Contact angles (°) (average),[1]; [8],15 °
same,"Contact angles (°), single readings",[1]; [8],12 ° and 21 °
same,Conclusion (wettability),[1]; [9],Wettable surface
same,Contact angles (°) (average),[1]; [9],8 °
same,"Contact angles (°), single readings",[1]; [9],9 ° and < 5 ° and 10 °
same,activation of platelet cells (electron microscopy),[2],platelet cells are not activated
same,adhesion of blood cells (electron microscopy),[2],adhere fewer blood cells than untreated materials
same,thrombogenicity vs untreated braided yarns,[2],appear less thrombogenic
same,% Reduction (platelet adhesion vs untreated catheters),platelets; [10],65%
same,"platelets adhered, DONOR 1",platelets; [10],1.89 platelets ×10^6 per 5 cm length of catheter
same,"platelets adhered, DONOR 2",platelets; [10],1.24 platelets ×10^6 per 5 cm length of catheter
same,"platelets adhered, DONOR 3",platelets; [10],5.84 platelets ×10^6 per 5 cm length of catheter
same,"platelets adhered, X̄ (mean of donors)",platelets; [10],2.99 platelets ×10^6 per 5 cm length of catheter
same,% Reduction (platelet adhesion vs uncoated PE),platelets; [3],94%
same,"platelets adhered, DONOR 1",platelets; [3],1.58 no. of platelets ×10^6 per 22 mm^2 area of material
same,"platelets adhered, DONOR 2",platelets; [3],3.76 no. of platelets ×10^6 per 22 mm^2 area of material
same,"platelets adhered, DONOR 3",platelets; [3],1.72 no. of platelets ×10^6 per 22 mm^2 area of material
same,"platelets adhered, X̄ (mean of donors)",platelets; [3],2.35 no. of platelets ×10^6 per 22 mm^2 area of material
same,% Reduction (platelet adhesion vs uncoated),platelets; [4],97%
same,"platelets adhered, DONOR 1",platelets; [4],0.53 platelets adhered ×10^6 per 3 cm lengths of catheters
same,"platelets adhered, DONOR 2",platelets; [4],1.38 platelets adhered ×10^6 per 3 cm lengths of catheters
same,"platelets adhered, DONOR 3",platelets; [4],0.60 platelets adhered ×10^6 per 3 cm lengths of catheters
same,"platelets adhered, X̄ (mean of donors)",platelets; [4],0.84 platelets adhered ×10^6 per 3 cm lengths of catheters
same,% Reduction (platelet adhesion vs uncoated),platelets; [5],87%
same,"platelets adhered, DONOR 1",platelets; [5],0.88 platelets adhered ×10^6 per 3 cm lengths of catheters
same,"platelets adhered, DONOR 2",platelets; [5],1.05 platelets adhered ×10^6 per 3 cm lengths of catheters
same,"platelets adhered, DONOR 3",platelets; [5],0.59 platelets adhered ×10^6 per 3 cm lengths of catheters
same,"platelets adhered, X̄ (mean of donors)",platelets; [5],0.84 platelets adhered ×10^6 per 3 cm lengths of catheters
same,platelet adhesion to coated PVC / thrombogenicity of PVC tubing,platelets; PVC tubing coated according to Example 1,large reduction in the thrombogenicity
same,% Reduction (platelet adhesion vs uncoated control),platelets; [11],94%
same,"platelets adhered, DONOR 2",platelets; [11],0.13 no. of platelets ×10^6 per 3 cm lengths of tubing
same,"platelets adhered, DONOR 3",platelets; [11],0.19 no. of platelets ×10^6 per 3 cm lengths of tubing
same,"platelets adhered, X̄ (mean of donors)",platelets; [11],0.35 no. of platelets ×10^6 per 3 cm lengths of tubing
same,"platelets adhered, DONOR 1","platelets; hard PVC tubing coated with 5 mg/ml solution (Example 1), 30 min, room temperature",0.72 no. of platelets ×10^6 per 3 cm lengths of tubing
same,% Reduction (platelet adhesion vs uncoated control),platelets; [12],97%
same,"platelets adhered, DONOR 1",platelets; [12],0.51 no. of platelets ×10^6 per 3 cm lengths of tubing
same,"platelets adhered, DONOR 2",platelets; [12],0.14 no. of platelets ×10^6 per 3 cm lengths of tubing
same,"platelets adhered, DONOR 3",platelets; [12],0.10 no. of platelets ×10^6 per 3 cm lengths of tubing
same,"platelets adhered, X̄ (mean of donors)",platelets; [12],0.25 no. of platelets ×10^6 per 3 cm lengths of tubing
same,% Reduction (platelet adhesion vs untreated),platelets; [13],91%
same,"platelets adhered, DONOR 1",platelets; [13],0.91 no. of platelets ×10^6 per 20 cm length of fibre
same,"platelets adhered, DONOR 2",platelets; [13],0.89 no. of platelets ×10^6 per 20 cm length of fibre
same,"platelets adhered, DONOR 3",platelets; [13],0.53 no. of platelets ×10^6 per 20 cm length of fibre
same,"platelets adhered, X̄ (mean of donors)",platelets; [13],0.78 no. of platelets ×10^6 per 20 cm length of fibre
same,"platelets adhered, DONOR 1",platelets; [14],0.41 no. of platelets ×10^6 per 20 cm length of fibre
same,"platelets adhered, DONOR 3",platelets; [14],0.52 no. of platelets ×10^6 per 20 cm length of fibre
same,% Reduction (platelet adhesion vs untreated),platelets; [15],56%
same,"platelets adhered, X̄ (mean of donors)",platelets; [15],3.67 no. of platelets ×10^6 per 20 cm length of fibre
same,"platelets adhered, DONOR 2","platelets; polypropylene hollow fibre membrane treated at 10 mg/ml (Example 7), result thought to be an outlier",10.08* no. of platelets ×10^6 per 20 cm length of fibre
same,% Reduction (platelet adhesion vs uncoated),platelets; [6],92%
same,"platelets adhered, DONOR 1",platelets; [6],5.54 no. of platelets ×10^6 adhered per petri dish (50 mm diameter)
same,"platelets adhered, DONOR 2",platelets; [6],3.55 no. of platelets ×10^6 adhered per petri dish (50 mm diameter)
same,"platelets adhered, DONOR 3",platelets; [6],3.08 no. of platelets ×10^6 adhered per petri dish (50 mm diameter)
same,"platelets adhered, X̄ (mean of donors)",platelets; [6],4.06 no. of platelets ×10^6 adhered per petri dish (50 mm diameter)
same,% Reduction (platelet adhesion vs uncoated control),platelets; [16],96%
same,"platelets adhered, DONOR 1",platelets; [16],0.76 no. of platelets ×10^6 per 3 cm lengths of tubing
same,"platelets adhered, DONOR 2",platelets; [16],0.72 no. of platelets ×10^6 per 3 cm lengths of tubing
same,"platelets adhered, DONOR 3",platelets; [16],0.30 no. of platelets ×10^6 per 3 cm lengths of tubing
same,"platelets adhered, X̄ (mean of donors)",platelets; [16],0.59 no. of platelets ×10^6 per 3 cm lengths of tubing
same,% Reduction (platelet adhesion vs uncoated control),platelets; [17],90%
same,"platelets adhered, DONOR 1",platelets; [17],0.97 no. of platelets ×10^6 per 3 cm lengths of tubing
same,"platelets adhered, DONOR 2",platelets; [17],1.89 no. of platelets ×10^6 per 3 cm lengths of tubing
same,"platelets adhered, DONOR 3",platelets; [17],1.25 no. of platelets ×10^6 per 3 cm lengths of tubing
same,"platelets adhered, X̄ (mean of donors)",platelets; [17],1.37 no. of platelets ×10^6 per 3 cm lengths of tubing
same,drainage of blood and clot remaining in catheter,recalcified blood,blood drained easily. One small clot remained attached to the surface
